Data taken from patent publication US20260085073A1, “PYRAZOLYLCARBOXAMIDE COMPOUNDS AND THEIR USE IN THERAPY” (Hotspot Therapeutics, Inc., priority 2022, published 2026).

biological target: T1, MALT1 (Homo sapiens, UniProt Q9UDY8); experiment: MALT1 inhibition assay (MALT-1 Fluorogenic Peptide Cleavage Assay, Ac-LRSR-AMC substrate); assay type: biochemical; details: Avi-tagged FL MALT-1, 30 min pre-incubation, 90 min reaction at room temperature, fluorescence intensity
T1 construct: Avi-tagged FL MALT-1 (Pharmaron, stored at −70° C.); Avi-tag
T1 sequence (Q9UDY8 1-824): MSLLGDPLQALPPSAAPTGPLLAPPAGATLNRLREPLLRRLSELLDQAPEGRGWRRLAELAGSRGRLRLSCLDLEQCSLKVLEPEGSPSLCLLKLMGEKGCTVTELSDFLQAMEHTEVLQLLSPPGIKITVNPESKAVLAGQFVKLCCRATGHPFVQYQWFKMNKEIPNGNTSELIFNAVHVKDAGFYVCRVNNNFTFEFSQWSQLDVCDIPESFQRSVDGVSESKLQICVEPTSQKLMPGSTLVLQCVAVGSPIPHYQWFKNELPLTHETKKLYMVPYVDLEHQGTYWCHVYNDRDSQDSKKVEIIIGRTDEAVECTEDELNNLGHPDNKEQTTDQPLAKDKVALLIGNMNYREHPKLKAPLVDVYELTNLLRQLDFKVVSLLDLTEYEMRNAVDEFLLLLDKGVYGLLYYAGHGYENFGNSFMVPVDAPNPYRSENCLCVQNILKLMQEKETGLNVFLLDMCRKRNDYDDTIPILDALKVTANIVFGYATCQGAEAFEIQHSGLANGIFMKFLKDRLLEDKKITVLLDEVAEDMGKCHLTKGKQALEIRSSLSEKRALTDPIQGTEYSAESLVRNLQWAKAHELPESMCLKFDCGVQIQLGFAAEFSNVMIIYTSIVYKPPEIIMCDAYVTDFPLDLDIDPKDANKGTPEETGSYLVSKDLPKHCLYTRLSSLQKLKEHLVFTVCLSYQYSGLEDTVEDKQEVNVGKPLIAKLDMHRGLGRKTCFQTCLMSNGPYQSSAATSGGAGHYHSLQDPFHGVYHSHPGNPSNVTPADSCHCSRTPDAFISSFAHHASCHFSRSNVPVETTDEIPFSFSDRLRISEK
Method in brief: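 Full-length Avi-tagged MALT1 pre-incubated 30 min at room temperature with compounds (2% DMSO final) in HEPES pH 6.89, sodium citrate, TCEP, EDTA, CHAPS buffer. Ac-LRSR-AMC added from 50 µM (Km) or […] working stocks; 90 min at room temperature, AMC fluorescence (ex 342/em 441 nm); IC50 from % inhibition curves.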

IC50 [nM] | Structure (SMILES)
< 500 | Cn1nc(-c2cccc3ccoc23)c(C(F)(F)F)c1C(=O)Nc1cnc(-n2nccn2)c(C(F)F)c1 [Compound I-128]
< 500 | Cn1nc(-c2cccc3ccoc23)c(C(F)(F)F)c1C(=O)Nc1cnc(-n2nccn2)c(Cl)c1 [Compound I-129]
500 to 2500 | Cn1nc(OCc2ccccc2)c(C(F)(F)F)c1C(=O)Nc1ccnc(C(F)(F)F)c1 [Compound I-130]
< 500 | Cn1nc(-c2cccc3c(=O)[nH]ccc23)c(C(F)(F)F)c1C(=O)Nc1cnc(-n2nccn2)c(C(F)F)c1 [Compound I-131]
< 500 | Cn1nc(-c2cccc3c(=O)[nH]ccc23)c(C(F)(F)F)c1C(=O)Nc1cnc(-n2nccn2)c(C(F)(F)F)c1 [Compound I-132]
< 500 | Cn1nc(-c2cccc3c(=O)[nH]ccc23)c(C(F)(F)F)c1C(=O)Nc1cnc(-n2nccn2)c(Cl)c1 [Compound I-133]
2500 to 10000 | Cn1nc(-c2ccccc2)c(C(F)(F)F)c1C(=O)Nc1ccnc(C2CC2)c1 [Compound I-134]
500 to 2500 | Cc1cc(NC(=O)c2c(C(F)(F)F)c(-c3ccccc3)nn2C)cnc1-n1nccn1 [Compound I-135]
2500 to 10000 | Cc1cc(NC(=O)c2c(C(F)(F)F)c(-c3ccccc3)nn2C)cnc1-n1ccnn1 [Compound I-136]
> 10000 | Cn1nc(-c2ccccc2)c(C(F)(F)F)c1C(=O)Nc1cc(C2CC2)ccn1 [Compound I-137]
500 to 2500 | Cn1nc(-c2ccccc2)c(C(F)(F)F)c1C(=O)Nc1cc(C(F)(F)F)ccn1 [Compound I-138]
< 500 | Cn1nc(-c2cccc3cnccc23)c(C(F)(F)F)c1C(=O)Nc1cnc(-n2nccn2)c(Cl)c1 [Compound I-140, N-(5-chloro-6-(2H-1,2,3-triazol-2-yl)pyridin-3-yl)-3-(isoquinolin-5-yl)-1-methyl-4-(trifluoromethyl)-1H-pyrazole-5-carboxamide]
2500 to 10000 | COc1ncc(NC(=O)c2c(C(F)(F)F)c(-c3cccc4ncccc34)nn2C)cc1C#N [Compound I-141]
< 500 | Cn1nc(C(=O)Nc2cnc(-n3nccn3)c(Cl)c2)c(C(F)(F)F)c1-c1cccc2c1OCO2 [Compound I-142]
500 to 2500 | Cn1nc(Cc2ccccc2)c(C(F)(F)F)c1C(=O)Nc1cnc(-n2nccn2)c(Cl)c1 [Compound I-143]
< 500 | Cn1nc(-c2cccc3c2OCO3)c(C(F)(F)F)c1C(=O)Nc1cnc(-n2nccn2)c(Cl)c1 [Compound I-144]
< 500 | Cn1nc(-c2cccc3occc23)c(C(F)(F)F)c1C(=O)Nc1cnc(-n2nccn2)c(Cl)c1 [Compound I-145]
< 500 | Cn1nc(-c2cccc3occc23)c(C(F)(F)F)c1C(=O)Nc1cnc(-n2nccn2)c(C(F)(F)F)c1 [Compound I-146]
< 500 | Cn1nc(-c2ccccc2)c(C(F)(F)F)c1C(=O)Nc1ccnc(C(F)(F)F)c1 [Compound I-147, 1-methyl-3-phenyl-4-(trifluoromethyl)-N-(2-(trifluoromethyl)pyridin-4-yl)-1H-pyrazole-5-carboxamide]
< 500 | Cn1nc(C(=O)Nc2cnc(-n3nccn3)c(Cl)c2)c(C(F)(F)F)c1-c1ccccc1 [Compound I-148]
> 10000 | Cn1nc(C(=O)Nc2ccc(C(=O)N3CC(O)C3)c(Cl)c2)c(C(F)(F)F)c1-c1ccccc1 [Compound I-149]
2500 to 10000 | Cn1nc(-c2ccccc2)c(C(F)(F)F)c1C(=O)Nc1ccc(C(=O)N2CC(O)C2)c(Cl)c1 [Compound I-150]
< 500 | Cn1nc(-c2ccccc2)c(C(F)(F)F)c1C(=O)Nc1cnc(-n2nccn2)c(C(F)(F)F)c1 [Compound I-151]
< 500 | Cn1nc(-c2ccccc2)c(C(F)(F)F)c1C(=O)Nc1cnc(-n2nccn2)c(Cl)c1 [Compound I-152]
< 500 | Cn1nc(-c2ccccc2)c(C(F)(F)F)c1C(=O)Nc1cnc(-n2nccn2)c(C#N)c1 [Compound I-153]
< 500 | Cn1nc(-c2cccc3c2OC(F)(F)O3)c(C(F)(F)F)c1C(=O)Nc1cnc(-n2nccn2)c(Cl)c1 [Compound I-154]
